The values that follow come from publication PMC6838110 (Nature Communications, 2019).

Common to all, as to assay type: cell-based
For experiment [1], the system named is secondary pharmacology target. In words: Cellular selectivity across secondary pharmacology targets. The following applies: versus cellular DNA-PKcs.
For the next experiment, the target named is T1, ATR (Homo sapiens, UniProt Q13535).
T1 construct: ATR (pCHK1 Ser345) in HT29; endogenous in cells; host or cells: HT-29
The experiment can be described thus: ATR (pCHK1 Ser345) imaging assay in 4NQO-treated HT29 cells. The following applies: geometric mean; Supplementary Table 1; read-out: Compound IC50 ATR. How it is done: HT-29 cells by an imaging-based assay. HT-29 cells were dispensed into 384-well Greiner plates (#781090) to give 6000 cells/well in a total volume of 40 µL cell media and incubated overnight. Test compounds and reference controls were dosed directly into the cell plates using a Labcyte Echo 555 acoustic dispenser. The cell plates were then incubated for 1 hour at 37°C before being dosed with 3 µM of 4NQO using a Labcyte Echo 555 acoustic dispenser. The cells were incubated for a further 1 h our and were then fixed by the addition of 20 µL 3.7% formaldehyde in PBS and incubated for 20 min utes at RT. The plates were subsequently washed on a Bioteck EL406 3x using PBS-T, and then permeabilized with the addition of 20 µL of 0.1% Triton X-100 in PBS for 10 minutes at RT. Following permeabilization, the plates were washed 3x with PBST and incubated with 20 µL of primary antibody (1:250 anti-Chk1 pSer345 in PBS-T) overnight at 4°C. The next day, the plates were washed 3x with PBS and incubated with 20 µL of secondary antibody (1:500 AlexaFluor 488 goat anti-rabbit IgG and 1:5000 Hoechst stock solution [10 mg/mL ] in antibody buffer) for 2 hours at RT. Following this final incubation, the plates were washed 3x with PBS, sealed with black plate seals and then read on a CellInsight imaging platform (Thermo Scientific) with 10x objective. A two -laser setup was used to analyse nuclear staining with Hoechst (405 nm) and secondary antibody staining of pChk1 (488 nm). […]

The target of another experiment is T2, DNA-PKcs (Homo sapiens, UniProt P78527).
T2 construct: evaluated in A549 cells following IR by measuring DNA-PKcs autophosphorylation on Ser2056; endogenous in cells; host or cells: A549
The experiment can be described thus: DNA-PKcs autophosphorylation (pSer2056) ELISA in IR-treated A549 cells. Particulars: geometric mean; Supplementary Table 1; read-out: Compound IC50 DNA-PKcs.

A further experiment deals with T3, ATM (Homo sapiens, UniProt Q13315).
T3 construct: ATM (pATM Ser1981) in HT29; endogenous in cells; host or cells: HT-29
The experiment can be described thus: ATM pSer1981 imaging assay in irradiated HT29 cells. Particulars: geometric mean; Supplementary Table 1; read-out: Compound IC50 ATM. The procedure:
Following this final incubation, the plates were washed twice using PBS, s ealed with black plate seals and then read on a CellInsight™ imaging platform (Thermo Scientific) with 10x objective. A two-laser setup was used to analyse nuclear staining with Hoechst (405 nm) and secondary antibody staining of pATM (488 nm). […]

The target in a further experiment is PI3Kα (Homo sapiens, UniProt P42336). In words: PI3K isoform assay, pAKT Thr308 ELISA in BT474 cells. The following applies: geometric mean; Supplementary Table 1; read-out: Compound IC50 PI3K (first PI3K line). How it is done:
(§1) BT474 (PI3Kα), MDA-MB-468 (PI3Kβ), RAW-264 (PI3Kγ) and JEKO-1 (PI3Kδ). Levels of phospho-AKT Thr308, a downstream target for PI3K, was used as a marker of PI3K […]
(§2) BT474 and MDA -MB-468 cells were seeded into 384-well plates
(§3) (5600 cells/well) and incubated overnight prior to compound treatment for 2 hours. […]
(§4) Compounds were added to […]
(§5) cells/plates using an Echo 555 Liquid Handler (LabCyte). BT474 and MDA -MB-468 cells were lysed in 25 µL lysis buffer (25 mM Tris-HCl, 3 mM EDTA, 3 mM EGTA, 50 mM NaF, 2 mM Na3VO4, 0.27 M sucrose, 10 mM β-glycerophosphate, 5 mM Na2P2O7, 0.5% Triton […]
(§6) X-100) for 30 minutes at RT. […]
(§7) Lysates were transferred onto ELISA plates pre-coated with anti-AKT antibody (Cell Signalling #7144) that had previously been blocked with 1% BSA in PBS-T and incubated overnight at 4°C. Plates were then incubated with mouse anti-phosphoAKT Thr308 (Cell Signalling Technology #7144) for 2 hours, followed by an anti-mouse HRP-conjugated antibody (Cell Signalling Technology #7144) for 2 hours. Plates were washed between antibody incubation steps with PBS-T. QuantaBlu substrate working solution […]
(§8) (ThermoScientific #15169) was added to each well according to the manufacturer’s instructions and stop solution was added 60 minutes later. Fluorescence was measured
(In an ELISA, binding on a coated surface is turned into a signal by an enzyme label.)

The next experiment addresses T4, mTOR (Homo sapiens, UniProt P42345).
T4 construct: mTOR (pAKT Ser473) in MDA-MB-468; endogenous in cells; host or cells: MDA-MB-468
The experiment can be described thus: mTOR (pAKT Ser473) imaging assay in MDA-MB-468 cells. The following applies: geometric mean; Supplementary Table 1; read-out: Compound IC50 mTOR.

The next experiment concerns the target T5, PI3Kβ (Homo sapiens, UniProt P42338).
T5 construct: MDA-MB-468 (PI3Kβ); endogenous in cells; host or cells: MDA-MB-468
In words: PI3K isoform assay, pAKT Thr308 ELISA in MDA-MB-468 cells. Particulars: geometric mean; Supplementary Table 1; read-out: Compound IC50 PI3K (second PI3K line). How it is done: as §1, §2, §3, §4, §5, §6, §7, §8

The next experiment deals with T6, PI3Kγ (Mus musculus, UniProt Q9JHG7).
T6 construct: RAW-264 (PI3Kγ); endogenous in cells; host or cells: RAW-264
The experiment can be described thus: PI3K isoform assay, pAKT Thr308 ELISA in RAW-264 cells. The following applies: geometric mean; Supplementary Table 1; read-out: Compound IC50 PI3K (third PI3K line). How it is done:
as §1
RAW-264 and JEKO-1 cells were seeded directly into 384-well plates containing compounds (1 x 10^5 cells/well) and incubated for 1 hour. Compounds were added to cells/plates using an Echo 555 Liquid Handler (LabCyte). […]
as §7, with “X-100) for 30 minutes at RT. To stimulate AKT phosphorylation, C5a (complement 5a) anaphylatoxin trifluoroacetate salt (20 nM; Bachem) was added to RAW-264 cells for 3 minutes and anti-human IgM (120 µg/mL; Stratech) was added to JEKO-1 cells for 10 minutes prior to cell lysis. RAW-264 and JEKO-1 cells were then lysed for 30 minutes at RT. Lysates” for “Lysates”
as §8

Another experiment deals with T7, PI3Kδ (Homo sapiens, UniProt O00329).
T7 construct: JEKO-1 (PI3Kδ) cells; endogenous in cells; host or cells: JEKO-1
In words: PI3K isoform assay, pAKT Thr308 ELISA in JEKO-1 cells. Particulars: geometric mean; Supplementary Table 1; read-out: Compound IC50 PI3K (fourth PI3K line). How it is done: as §1
RAW-264 and JEKO-1 cells were seeded directly into 384-well plates containing compounds (1 x 10^5 cells/well) and incubated for 1 hour. Compounds were added to cells/plates using an Echo 555 Liquid Handler (LabCyte). BT474 and MDA -MB-468 cells were lysed in 25 µL lysis buffer (25 mM Tris-HCl, 3 mM EDTA, 3 mM EGTA, 50 mM NaF, 2 mM Na3VO4, 0.27 M sucrose, 10 mM β-glycerophosphate, 5 mM Na2P2O7, 0.5% Triton […]
as §6
3 minutes and anti-human IgM (120 µg/mL; Stratech) was added to JEKO-1 cells for 10 minutes prior to cell lysis. RAW-264 and JEKO-1 cells were then lysed for 30 minutes at RT. Lysates were transferred onto ELISA plates pre-coated with anti-AKT antibody (Cell Signalling #7144) that had previously been blocked with 1% BSA in PBS-T and incubated overnight at 4°C. Plates were then incubated with mouse anti-phosphoAKT Thr308 (Cell Signalling Technology #7144) for 2 hours, followed by an anti-mouse HRP-conjugated antibody (Cell Signalling Technology #7144) for 2 hours. […]
as §8

T3 sequence (Q13315 whole entry): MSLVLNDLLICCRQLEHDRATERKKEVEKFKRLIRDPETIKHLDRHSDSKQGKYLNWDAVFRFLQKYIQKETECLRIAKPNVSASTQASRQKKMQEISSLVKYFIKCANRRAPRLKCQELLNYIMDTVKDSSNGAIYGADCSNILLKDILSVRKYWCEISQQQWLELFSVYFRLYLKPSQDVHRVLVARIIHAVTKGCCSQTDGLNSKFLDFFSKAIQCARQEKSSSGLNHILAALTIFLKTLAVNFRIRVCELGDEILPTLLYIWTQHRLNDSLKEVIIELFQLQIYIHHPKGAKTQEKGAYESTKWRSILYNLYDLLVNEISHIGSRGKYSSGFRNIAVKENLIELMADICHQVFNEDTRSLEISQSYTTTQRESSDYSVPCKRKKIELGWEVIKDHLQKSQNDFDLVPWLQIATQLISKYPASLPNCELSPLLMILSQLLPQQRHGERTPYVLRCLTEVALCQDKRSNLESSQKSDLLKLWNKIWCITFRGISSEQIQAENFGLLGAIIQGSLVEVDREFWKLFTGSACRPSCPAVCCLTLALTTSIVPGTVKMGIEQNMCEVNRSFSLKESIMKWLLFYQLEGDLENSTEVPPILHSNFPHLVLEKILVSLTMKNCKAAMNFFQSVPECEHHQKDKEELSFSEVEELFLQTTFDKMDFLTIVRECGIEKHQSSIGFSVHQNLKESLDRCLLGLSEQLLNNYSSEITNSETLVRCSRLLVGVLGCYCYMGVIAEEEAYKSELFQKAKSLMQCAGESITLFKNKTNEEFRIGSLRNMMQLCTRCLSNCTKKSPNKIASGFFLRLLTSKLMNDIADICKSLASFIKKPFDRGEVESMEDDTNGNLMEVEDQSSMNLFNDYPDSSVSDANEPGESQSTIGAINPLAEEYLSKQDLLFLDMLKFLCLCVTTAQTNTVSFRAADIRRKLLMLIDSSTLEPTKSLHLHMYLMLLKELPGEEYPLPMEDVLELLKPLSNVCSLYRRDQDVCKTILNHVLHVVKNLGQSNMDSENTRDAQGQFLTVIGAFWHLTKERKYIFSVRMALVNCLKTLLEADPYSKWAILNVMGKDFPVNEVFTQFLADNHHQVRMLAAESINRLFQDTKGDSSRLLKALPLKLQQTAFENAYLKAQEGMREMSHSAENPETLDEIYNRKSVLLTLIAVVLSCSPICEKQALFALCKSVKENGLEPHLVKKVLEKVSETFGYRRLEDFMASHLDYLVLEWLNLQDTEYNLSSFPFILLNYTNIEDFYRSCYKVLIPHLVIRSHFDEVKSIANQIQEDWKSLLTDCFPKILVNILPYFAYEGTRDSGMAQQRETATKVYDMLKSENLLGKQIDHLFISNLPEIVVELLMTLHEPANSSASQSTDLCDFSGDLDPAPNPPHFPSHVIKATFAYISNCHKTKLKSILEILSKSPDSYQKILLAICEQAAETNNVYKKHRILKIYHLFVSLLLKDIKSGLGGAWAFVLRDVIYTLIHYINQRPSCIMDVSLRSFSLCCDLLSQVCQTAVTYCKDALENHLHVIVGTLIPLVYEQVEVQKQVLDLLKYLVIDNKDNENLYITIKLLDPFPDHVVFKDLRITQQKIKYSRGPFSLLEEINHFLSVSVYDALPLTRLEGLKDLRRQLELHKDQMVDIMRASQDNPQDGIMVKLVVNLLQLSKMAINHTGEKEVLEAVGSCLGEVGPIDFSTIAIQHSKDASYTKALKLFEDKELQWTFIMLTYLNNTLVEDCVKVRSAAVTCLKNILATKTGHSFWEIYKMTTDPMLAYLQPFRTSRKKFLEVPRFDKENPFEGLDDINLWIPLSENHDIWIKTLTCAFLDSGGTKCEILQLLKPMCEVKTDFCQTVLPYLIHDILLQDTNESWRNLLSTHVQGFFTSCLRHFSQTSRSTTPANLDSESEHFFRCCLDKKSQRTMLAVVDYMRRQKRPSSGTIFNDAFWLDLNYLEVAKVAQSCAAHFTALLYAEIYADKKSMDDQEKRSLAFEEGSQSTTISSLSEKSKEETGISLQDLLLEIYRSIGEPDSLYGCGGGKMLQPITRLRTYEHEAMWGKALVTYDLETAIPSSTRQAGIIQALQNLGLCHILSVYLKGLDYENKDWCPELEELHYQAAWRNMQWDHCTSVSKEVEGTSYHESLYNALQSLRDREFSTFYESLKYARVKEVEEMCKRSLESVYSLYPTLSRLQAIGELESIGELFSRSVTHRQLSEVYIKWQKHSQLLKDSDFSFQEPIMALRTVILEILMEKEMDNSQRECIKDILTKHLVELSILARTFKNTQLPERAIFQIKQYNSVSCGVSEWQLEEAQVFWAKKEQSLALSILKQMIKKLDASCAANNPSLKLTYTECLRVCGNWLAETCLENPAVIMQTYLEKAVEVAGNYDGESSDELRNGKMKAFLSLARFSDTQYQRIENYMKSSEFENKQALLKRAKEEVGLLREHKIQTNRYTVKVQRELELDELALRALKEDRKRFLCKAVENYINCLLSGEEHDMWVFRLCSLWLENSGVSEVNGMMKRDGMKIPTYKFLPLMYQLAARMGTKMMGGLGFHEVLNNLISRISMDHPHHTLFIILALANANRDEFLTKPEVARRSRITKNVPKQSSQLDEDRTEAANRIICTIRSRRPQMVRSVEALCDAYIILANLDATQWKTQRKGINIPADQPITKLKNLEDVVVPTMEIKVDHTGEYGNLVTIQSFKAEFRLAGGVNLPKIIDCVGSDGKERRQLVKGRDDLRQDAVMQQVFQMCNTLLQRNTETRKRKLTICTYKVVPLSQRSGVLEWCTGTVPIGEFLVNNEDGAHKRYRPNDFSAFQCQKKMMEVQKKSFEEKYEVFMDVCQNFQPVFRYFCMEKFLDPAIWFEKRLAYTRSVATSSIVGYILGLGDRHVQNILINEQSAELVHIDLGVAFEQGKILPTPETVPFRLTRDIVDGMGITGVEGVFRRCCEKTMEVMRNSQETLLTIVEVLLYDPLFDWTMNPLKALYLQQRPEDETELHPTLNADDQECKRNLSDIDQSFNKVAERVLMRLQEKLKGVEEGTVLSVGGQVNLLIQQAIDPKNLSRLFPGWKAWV
PI3Kα, sequence (P42336 187-1068 limits assumed): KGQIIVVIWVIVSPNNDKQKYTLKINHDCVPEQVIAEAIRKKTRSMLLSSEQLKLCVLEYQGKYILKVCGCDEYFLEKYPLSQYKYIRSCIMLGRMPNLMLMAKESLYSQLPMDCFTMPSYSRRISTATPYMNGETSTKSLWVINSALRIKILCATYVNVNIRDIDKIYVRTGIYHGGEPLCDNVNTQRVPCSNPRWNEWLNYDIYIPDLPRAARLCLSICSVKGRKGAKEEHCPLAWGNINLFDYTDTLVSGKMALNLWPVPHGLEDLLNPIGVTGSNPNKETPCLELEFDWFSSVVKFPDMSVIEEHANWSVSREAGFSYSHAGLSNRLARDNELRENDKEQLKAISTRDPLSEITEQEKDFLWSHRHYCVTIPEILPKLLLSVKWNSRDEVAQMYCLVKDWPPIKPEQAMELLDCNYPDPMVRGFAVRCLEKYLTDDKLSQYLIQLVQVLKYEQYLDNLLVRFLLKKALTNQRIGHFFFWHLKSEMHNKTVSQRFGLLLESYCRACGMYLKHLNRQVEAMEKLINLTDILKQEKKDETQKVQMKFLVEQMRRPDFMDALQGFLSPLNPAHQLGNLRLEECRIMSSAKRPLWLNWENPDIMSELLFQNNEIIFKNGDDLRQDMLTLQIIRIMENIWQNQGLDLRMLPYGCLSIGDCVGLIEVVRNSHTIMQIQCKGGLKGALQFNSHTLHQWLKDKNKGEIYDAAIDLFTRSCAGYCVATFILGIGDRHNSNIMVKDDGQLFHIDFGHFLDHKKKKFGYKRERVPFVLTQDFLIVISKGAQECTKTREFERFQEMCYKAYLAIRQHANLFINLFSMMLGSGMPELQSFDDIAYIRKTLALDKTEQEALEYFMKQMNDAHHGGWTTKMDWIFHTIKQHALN
T6 sequence (Q9JHG7 whole entry): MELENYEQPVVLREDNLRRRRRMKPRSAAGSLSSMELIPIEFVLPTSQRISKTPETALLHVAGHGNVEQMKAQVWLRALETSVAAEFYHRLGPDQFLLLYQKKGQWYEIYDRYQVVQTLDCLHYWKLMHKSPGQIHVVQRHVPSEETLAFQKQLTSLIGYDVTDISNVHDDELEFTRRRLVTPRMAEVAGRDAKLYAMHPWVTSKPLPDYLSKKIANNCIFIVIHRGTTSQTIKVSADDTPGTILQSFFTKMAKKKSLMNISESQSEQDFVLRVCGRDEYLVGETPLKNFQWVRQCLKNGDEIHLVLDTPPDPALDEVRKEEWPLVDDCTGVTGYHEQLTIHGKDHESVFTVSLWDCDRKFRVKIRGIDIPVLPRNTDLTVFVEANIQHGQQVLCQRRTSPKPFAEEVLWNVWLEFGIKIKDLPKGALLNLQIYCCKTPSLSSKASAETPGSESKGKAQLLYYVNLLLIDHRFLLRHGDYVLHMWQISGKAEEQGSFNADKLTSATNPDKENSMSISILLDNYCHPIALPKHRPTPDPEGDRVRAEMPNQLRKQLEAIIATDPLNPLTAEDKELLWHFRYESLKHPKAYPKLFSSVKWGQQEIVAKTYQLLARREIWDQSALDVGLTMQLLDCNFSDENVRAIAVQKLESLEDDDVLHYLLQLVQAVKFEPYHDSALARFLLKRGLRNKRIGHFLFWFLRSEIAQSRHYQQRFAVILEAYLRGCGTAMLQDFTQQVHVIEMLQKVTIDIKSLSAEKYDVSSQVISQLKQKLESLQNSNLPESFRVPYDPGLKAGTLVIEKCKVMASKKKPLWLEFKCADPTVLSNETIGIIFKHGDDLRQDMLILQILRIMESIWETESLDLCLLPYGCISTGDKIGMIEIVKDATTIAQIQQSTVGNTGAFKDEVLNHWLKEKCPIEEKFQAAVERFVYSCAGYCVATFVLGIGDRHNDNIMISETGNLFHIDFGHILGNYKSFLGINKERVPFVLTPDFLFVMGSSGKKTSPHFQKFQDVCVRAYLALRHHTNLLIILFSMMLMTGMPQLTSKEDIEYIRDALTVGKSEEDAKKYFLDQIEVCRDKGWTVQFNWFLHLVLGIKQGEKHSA

By IC50 is commonly meant the midpoint of a concentration-inhibition curve. As for `CCN1CCN(CC(=O)Nc2ccc(-c3cccc4c(=O)cc(N5CCOCC5)oc34)c3sc4ccccc4c23)CC1` [KU-0060648], the “selectivity in at least one secondary pharmacology target” value in [1] is less than 10 fold. Further, the IC50 was greater than 30 µM on ATR; 0.055 µM on DNA-PKcs; greater than 30 µM at ATM; 0.2 µM at PI3Kα; 0.15 µM on mTOR.
Take `CNC(=O)c1ccnc2c([C@H](C)CNc3cc(-c4cnc(C)nc4)ncn3)cccc12` [M9831/VX-984]: the IC50 on PI3Kβ was greater than 30 µM; on ATR, greater than 30 µM; on DNA-PKcs, 0.115 µM; on ATM it was greater than 30 µM; on PI3Kα, greater than 20 µM; at PI3Kγ it was 7.1 µM. Further, the 50% inhibitory concentration (IC50) on mTOR and at PI3Kδ was greater than 30 µM throughout.
Consider `O=c1cc(N2CCOCC2)oc2c(-c3cccc4c3sc3ccccc34)cccc12` [NU7441], for which, in experiment [1], the “selectivity in at least one secondary pharmacology target” value is listed as less than 10 fold. The IC50 on ATR is greater than 30 µM; at DNA-PKcs, 0.185 µM; on ATM it was greater than 3.1 µM; on PI3Kα, 7.8 µM; at mTOR, 1.8 µM.
As for `COc1ccc([C@@H](O)c2cc(-c3ncnc4cc(N5CCOCC5)ccc34)c(F)cc2Cl)nn1` [M3814], the IC50 on ATR was greater than 30 µM; at ATM, greater than 30 µM; on PI3Kγ, 1.59 µM.
